# Tests used:
# [1] = Preliminary aqueous solubility screen; format: physicochemical; conditions: pH 7.4 PBS with about 5% DMSO, about room temperature, free base
# Experimental: Aqueous solubility: A preliminary screen aims to estimate roughly the aqueous solubility of compounds by (as an approximate summary): (i) creating a ca. 10 mM solution of the compound in DMSO, (ii) diluting a portion of this DMSO solution by mixing about 19 parts by volume of pH 7.4 aqueous phosphate buffered saline (PBS) buffer with 1 part by volume of the ca. 10 mM DMSO solution, (iii) “filtering” the mixture with the aid of centrifugation, and then (iv) measuring the concentration of the dissolved compound in the “filtrate”.
# [2] = Preliminary test of systemic exposure after oral administration to rat(s); format: in vivo; conditions: about 1 mg/kg, free base, in approx. 10% DMSO and 90% PEG200/water (70:30), preliminary tests
# Source text: Although the compound of formula (I) or salt thereof may be administered orally, oral administration is not presently thought to be a preferred route of administration, at least for the compound 4-{[1-(aminocarbonyl)-4-piperidinyl]amino}-N-[(3,4-dimethylphenyl)methyl]-1-ethyl-1H-pyrazolo[3,4-b]pyridine-5-carboxamide (“free base” form) (e.g. Example 2, 2A or 2B).
# [3] = tested on: dinitrofluorobenzene (DNFB)-induced delayed type hypersensitivity (DTH) response in pigs; assay: In Vivo Assay A: pig model of atopic dermatitis, skin topical administration; conditions: for reduction in the mean summed score: ca. 2.5% (w/v) in DMSO/acetone solution, about 2 h prior to and 6 h after DNFB challenge, vs vehicle alone
# Source text: The pig DTH (delayed type hypersensitivity) model of contact hypersensitivity utilizes the Th2-mediated inflammatory response in pig skin to mimic the pathology of atopic dermatitis in humans. The model measures the potential anti-inflammatory effect of compounds, topically-applied to the skin, on the acute DTH (delayed type hypersensitivity) response in castrated male Yorkshire pigs.
# In general in the assay, pigs (domestic Yorkshire pigs, 15-18 kg at time of sensitization, castrated males) are first sensitized by topical application of ca. 10% (w/v) dinitrofluorobenzene (DNFB) dissolved in DMSO:acetone:olive oil (ca. 1:5:3) (ca. 40 mg DNFB, 400 microlitre solution total) to the ears (outer) and groin (inner). The pigs are then challenged 12 days later with ca. 0.6% (w/v) DNFB applied to randomized sites on the shaved back of the pigs (ca. 90 micrograms/site; sites are identified and numbered by grid made with marking pen).
# On the day of challenge, the treatments are performed at the challenge sites at about 2 hours prior to and about 6 hours after challenge (for DMSO/acetone solutions/suspensions containing the PDE4 inhibitor, to maximize exposure to drug), or at about 30 minutes after and about 6 hours after challenge (for topical ointments or creams containing the PDE4 inhibitor, representing a more clinically relevant treatment protocol).
# One day (about 24 hrs) after challenge, and optionally again at ca. 48 hrs post challenge, test sites are visually evaluated for intensity and extent of erythema by measuring the diameter of the reaction at its widest point and assigning scores of 0 to 4 for each of erythema intensity and erythema extent. Induration (a measure of swelling) is also scored 0 to 4. Scores for erythema intensity, erythema extent and induration are assigned according to the following criteria: Intensity of Erythema: 0=normal, 1=minimal, barely visible, 2=mild, 3=moderate, 4=severe. Extent of Erythema (not raised): 0=no edema, 1=macules of pin head size, 2=lentil sized macules, 3=confluent macules, 4=diffuse over entire site. Induration (palpable): 0=normal, 1=nodules of pin head size, 2=doughy lentil sized nodules, 3=confluent firm nodules, 4=diffuse hard lesion. The summed visual score at ca. 24 hours includes the individual scores for erythema intensity, erythema extent, and induration; so the maximal summed score for each site would be 12. High summed scores can generally indicate a high inflammatory response. Visual scores are subject to some inaccuracy/error.
# Differences in the summed score between adjacent control (placebo) and treatment sites on the grids are calculated. This difference value is then used to determine the percent inhibition compared to the summed score for the control (placebo) sites. The more negative the difference value, the greater the calculated inhibition. Percent inhibition of (percent inhibition compared to) the mean summed score can be calculated.
# About 24 hours after challenge, treatment sites can optionally also be visually evaluated for lesion area.
# The anti-inflammatory effect of the compound 4-{[1-(aminocarbonyl)-4-piperidinyl]amino}-N-[(3,4-dimethylphenyl)methyl]-1-ethyl-1H-pyrazolo[3,4-b]pyridine-5-carboxamide (“Example 2 or 2A compound”), applied topically to the skin, on the acute DTH response in castrated male Yorkshire pigs is compared to that of another PDE4 inhibitor cipamfylline (BRL-61063) and the topical immunomodulator pimecrolimus.
# In the above assay, the Example 2 or 2A compound is topically administered: either (A) at ca. 2.5% (w/v) concentration in a solution of ca. 10% DMSO/90% acetone (ca. 50 microlitres or ca. 1.5 mg/site) at about 2 hours prior to and about 6 hours after the DNFB challenge; or (B) at ca. 0.5% (w/w) concentration in an ointment containing propylene glycol (PG)* (ca. 25 mg of formulation/site) at about 30 minutes after and about 6 hours after the DNFB challenge. […]
# Measured logD = format: physicochemical; conditions: octanol/water; pH=7.4, free base
# [4] = tested on: atopic dermatitis patients; conditions: 0.5% ointment, twice daily topical application; cited from earlier work
# COPD patients = conditions: cited from earlier work
# [5] = tested on: atopic dermatitis patients; conditions: 0.15% cream vs vehicle and hydrocortisone 17-butyrate (0.1%) cream; cited from earlier work
structure (smiles),measurement,setting,value
"CCn1ncc2c(NC3CCN(C(N)=O)CC3)c(C(=O)NCc3ccc(C)c(C)c3)cnc21 [Example 2, 4-{[1-(aminocarbonyl)-4-piperidinyl]amino}-N-[(3,4-dimethylphenyl)methyl]-1-ethyl-1H-pyrazolo[3,4-b]pyridine-5-carboxamide]",aqueous solubility,[1],about 60 micrograms of the compound/ml
same,melting point,,152 to 154 °C
same,systemic exposure after oral administration,[2],low systemic exposure
same,"inhibition of the mean summed score (erythema intensity, erythema extent, induration)","[3]; ca. 0.5% (w/w) in PG ointment, about 30 min and 6 h after DNFB challenge, vs placebo PG ointment, ca. 24 h, p<0.05",13-14%
same,reduction in the mean summed score,[3],about 21%
same,lesion area,"[3]; skin administration in DMSO/acetone or PG ointment, results subject to some inaccuracy/error",decrease the lesion area
same,logD,Measured logD,~3.4
"COc1ccc(C2CNC(=O)NC2)cc1O[C@H]1C[C@@H]2CC[C@H]1C2 [CP80,633]",inflammatory parameters in atopic dermatitis patients,[4],reductions of inflammatory parameters
COc1ccc([C@]2(C#N)CC[C@@H](C(=O)O)CC2)cc1OC1CCCC1 [cilomilast],forced expiratory volume (FEV1) in COPD patients,COPD patients; 15 mg orally twice daily,appears to improve forced expiratory volume
same,antiinflammatory effects in COPD patients,"COPD patients; human, in vivo",appears to have antiinflammatory effects
"Nc1nc2c([nH]1)c(=O)n(CC1CC1)c(=O)n2CC1CC1 [cipamfylline, reference compound]",effectiveness in the treatment of atopic dermatitis patients,[5],"significantly more effective than vehicle, but significantly less effective than hydrocortisone 17-butyrate (0.1%) cream"
same,reduction in the summed scores,"[3]; ca. 0.25% (w/w) in ointment, not statistically significant",6-7%
same,reduction in the mean summed score,[3],about 8%

# From US20080275078A1, “Pyrazolo[3,4-B] Pyridine Compounds and Their Use as Pde4 Inhibitors” (Glaxo Group Limited, priority 2004, published 2008)
